Marks after values point to notes of the source that are not given here. Where a SMILES comes first, the peptide text is derived from it. The star is where a group is joined. Myristoyl = CCCCCCCCCCCCCC(=O)*
Assays:
[1] = Stability of test peptides in human plasma (LC/MS/MS, first order half-life); format: in vitro ADME
Experimental: (§1) Various test peptides in human plasma, human BALF, and CF patient mucus were analyzed to determine the susceptability of the test peptide to proteolysis in the biological fluids. […] The samples were analyzed either on the same day as received or stored at −20° C. and analyzed within the following two days.
Fresh human blood samples were collected in citrate buffered vacuutrainers (in absence of EDTA or heparin). Red blood cells (RBC) were removed by centrifugation of the blood at 4000×g for 10 min at 4° C. Plasma aliquots (0.9 mL) were then spiked with 0.1 mL of 0.5 mg/mL solution of the test peptide in 75 mM sodium acetate buffer at pH 7.0 and incubated in a water bath maintained at 37° C. Duplicate aliquots of 10 μL, were withdrawn at 5, 15, 30, 60, and 180 minutes intervals and immediately “quenched” with 990 μL of a solution consisting of 50% acetonitrile+50% water containing 0.2% formic acid. The samples were then subjected to liquid chromatography-mass spectrometry (LCMS) analysis.
(§2) All samples were analyzed using LC/MS/MS (MDS/SCIEX, API 4000 Model). Chromatography was performed using a Phenomenex Luna C18 column, while mass spectrometry was performed using positive ion electrospray ionization.
Calibration standards were analyzed by LCMS at concentrations of 0.100 μg/mL, 1.00 μg/mL, 10.0 μg/mL, and 100 μg/mL for each peptide, with the exception of the calibration standards for peptides myr-PEPTIDE 106, PEPTIDE 106, PEPTIDE 106-NH2, PEPTIDE 106, and cyclic peptide, cyc-PEPTIDE 106, in human mucus, which were analyzed at concentrations of 0.100 μg/mL, 1.00 μg/mL, 10.0 μg/mL, and 75 μg/mL. Standards were prepared in 1% human BALF, plasma, or mucus in 50/50 water/acetonitrile mixture containing 0.2% formic acid. The instrument response values for each set of standards were fit using a 1/(concentration)^2 linear least-squares line. Sample concentrations were calculated using the slope and intercept of this line. Concentrations outside of the calibration range were determined by extrapolating the calibration curve. […]
For the analysis of peptide concentration in plasma, duplicate calibration standards were analyzed at a concentration of 25 μg/mL and 50 μg/mL for each peptide. The instrument response values for each set of standards were fit through an intercept of 0 using an unweighted, linear least-squares line. Sample concentrations were calculated using the slope and intercept of this line. Concentrations outside of the calibration range were determined by extrapolating the calibration curve.
(§3) Watson fits the log transformed data with a least-squares line to determine parameters such as Cmax (maximum concentration), intercept, rate constant, slope, and T1/2 (half-life). The resulting kinetic parameters were based on the linear fit, not the actual concentration values.
(§4) Time-zero calibration standards in solution were not included as part of the kinetic profiles.

[2] = Stability of test peptides in human BALF (LC/MS/MS, first order half-life); format: in vitro ADME
Experimental: as §1
Samples of BALF collected from COPD patients were obtained and frozen. The BALF samples were thawed, mixed together and centrifuged at 10,000×g for 10 min at 4-8° C. The supernatant (0.9 mL) was spiked with 0.1 mL of 0.5 mg/mL solution of the peptide in 75 mM sodium acetate buffer at pH 7.0 and processed and analyzed as described above.
as §2
(§5) Calibration standards were analyzed by LCMS at concentrations of 0.100 μg/mL, 1.00 μg/mL, 10.0 μg/mL, and 100 μg/mL for each peptide, with the exception of the calibration standards for peptides myr-PEPTIDE 106, PEPTIDE 106, PEPTIDE 106-NH2, PEPTIDE 106, and cyclic peptide, cyc-PEPTIDE 106, in human mucus, which were analyzed at concentrations of 0.100 μg/mL, 1.00 μg/mL, 10.0 μg/mL, and 75 μg/mL. Standards were prepared in 1% human BALF, plasma, or mucus in 50/50 water/acetonitrile mixture containing 0.2% formic acid. The instrument response values for each set of standards were fit using a 1/(concentration)^2 linear least-squares line. Sample concentrations were calculated using the slope and intercept of this line. Concentrations outside of the calibration range were determined by extrapolating the calibration curve.
Duplicate calibration standards were analyzed at a concentration of 50 μg/mL for each peptide. The instrument response values for each set of standards were fit through an intercept of 0 using an unweighted, linear least-squares line. Sample concentrations were calculated using the slope and intercept of this line.
For the analysis of peptide concentration in BALF samples, one 50 μg/mL calibration standard prepared in a mixture of BALF, water, acetonitrile, and formic acid was analyzed with each sample set.
as §3, §4

[3] = Qualitative solubility of test peptides in 0.5 N saline; format: physicochemical; settings: pH 6.5, 20° C. (table title)
Experimental: Various test peptides (1 to 5 mg each) were weighed out accurately in individual 2 mL screw cap glass vials and aliquots of 25 μL of 0.5 N saline, pH 6.5, were added at 25° C. and ambient pressure. The solubility was evaluated visually. If the test peptide dissolves completely with the first aliquot of saline, its solubility was calculated and designated as more than the calculated amount. […] Similarly, if 1.7 mg of a test peptide fails to dissolve in 1.7 mL of 0.5 N saline, its solubility is stated as <1.0 mg/mL.

[4] = Stability of test peptides in human CF mucus (LC/MS/MS, first order half-life); format: in vitro ADME
Experimental: as §1
The frozen mucus (sputum) from a CF patient was thawed and mixed with 2 volumes of 75 mM sodium acetate buffer, pH 7 with the help of a glass tissue grinder, centrifuged at 10,000×g for 10 min at 4-8° C. The pellet was re-suspended in 1 volume of the acetate buffer and centrifuged. The two supernatants were combined and used as follows. The supernatant (450 μL) was spiked with 50 μL, of 0.5 mg/mL solution of the peptide in 75 mM sodium acetate buffer at pH 7.0 and processed and analyzed as described above.
as §2, §5, §3, §4

HBE1 cells = test: PMA-induced mucin hypersecretion in human bronchial epithelial cells (air/liquid interface, MUC5A ELISA); format: cell-based; settings: 0.5 μM PMA, 30 min
Experimental: HBE1 is a papilloma virus-transformed human bronchial epithelial cell line capable of mucin secretion when cultured in air/liquid interface. HBE1 cells were cultured in the air/liquid interface as described previously (Li et al, J. Biol. Chem., volume 276, pp 40982-40990, 2001). Briefly, HBE1 cells were cultured in air/liquid interface by seeding an appropriate number of cells in 12-well Transwell clear culture inserts (Costar, Cambridge, Mass.) that were thinly coated with rat tail collagen, type I (Collaborative Biomedical, Bedford, Mass.). Cells were initially cultured submerged in medium in a humidified 95% air, 5% CO2 environment for 5-7 days until nearly confluent. At that time, the air/liquid interface was created by removing the apical medium and feeding cells basalaterally. Medium was renewed daily thereafter. Cells were cultured for an additional 14 days to allow full differentiation. The accumulated mucin at the apical surface of the cells was removed by washing with phosphate-buffered saline, pH 7.2. To collect the baseline mucin secretion, cells were incubated for 30 min with medium alone and secreted mucin in the apical medium was collected, and quantitated by ELISA. To determine the mucin hypersecretion induced by a mucin secretagogue, cells were exposed to medium containing 0.5 μM phorbol myristate acetate, (PMA) for 30 min. and mucin was collected and quantitated by ELISA. […] Six wells were used for each test peptides and for each control. Secreted mucin in the apical medium was collected and quantitated by sandwich ELISA method using alkaline phosphatase-conjugated mucin (MUC5A) specific antibody (Zymed Laboratories, San Francisco, Calif.).

[5] = system: methacholine-induced mucin hypersecretion; test: Methacholine-induced mucin hypersecretion in ovalbumin-sensitized mouse model of asthma, BAL mucin ELISA (Balb/C mice); format: in vivo; settings: for Mucin Secretion % control: Table II, peptides at 100 μM, 50 μL intratracheal 15 min before methacholine; for Mucin Secretion % of control: Table IV
Excerpt: Experiments were designed to test whether or not the MANS peptide and other test peptides related thereto inhibit hypersecretion of mucin in murine airway in vivo. The ovalbumin-sensitized mouse model of allergic inflammation and asthma used in these studies was as described by Singer et al. (2004), supra. As a negative control, a control peptide containing an N-terminal myristoyl group and the same amino acids as MANS peptide but arranged in random order (i.e., the random N-terminal sequence, RNS, myristoyl-peptide 232) was tested alongside the proposed active peptides. BP2 mice, aged 6-8 wks, were immunized subcutaneously twice at weekly intervals with 1 μg of ovalbumin. After 14 days of sensitization, the animals were exposed to aerosolized ovalbumin, which causes a pronounced goblet cell hyperplasia after 72 hours. At the 72 hr time point, the secretagogue, methacholine ([…]) was delivered using a Buxco system nebulizer providing a fine aerosol for 90 seconds. Fifteen min prior to the secretagogue challenge, 50 μL of the test peptide, at 3 different concentrations (10 μM, 100 μM, or 140 μM), was administered by intratracheal route. The RNS peptide was tested at the highest dose level only (50 μL of 140 μM solution). […] Each experiment was carried out in 6 mice per point, and each set of experiments was repeated 3 times. To test strain-to-strain variations, the above experiment was repeated in Balb/C mice under similar protocol. Both stimulated and unstimulated mucin secretion, in mice treated with […] sodium acetate (data not shown), were identical to saline control. Following the methacholine challenge, the animals were sacrificed and bronchoalveolar lavage (BAL) performed on 6 animals per group for analysis of secreted mucin.
Mice were sacrificed by cervical dislocation, followed by rapid exposure of the trachea and insertion of a cannula through a small incision. Bronchoalveolar lavage (BAL) fluid was collected with 0.5 ml followed by 3×1 ml PBS containing PMSF (5 mM), EDTA (5 mM), and DTT (5 mM). BAL fluid was separated into cell-free and cell fractions via brief centrifugation prior to any analyses being performed. The cell-free supernatants were analyzed for the presence of mucin via an ELISA method using anti-mucin antibodies shown to react with mouse mucin. Specifically, a mouse anti-MUC5AC antibody that recognizes the carbohydrate portion of secreted mucin was used in these assays. Data generated from each BAL sample were normalized to total protein as determined by Bradford assay. Mucin content was expressed as the value obtained with the anti-mucin antibody minus that obtained with the non-immune control antibody. All ELISA data were statistically examined using a one-way ANOVA.

[6] = human plasma, 37° C., 1st experiment, read-out: Plasma t1/2 (1st exp.) (converted)
[7] = human plasma, 37° C., 2nd experiment, read-out: Plasma t1/2 (2nd exp.) (converted)
[8] = human BALF from COPD patients, 1st experiment, read-out: BALF t1/2 (1st exp.) (converted)

| Molecule | half-life [1, 6] [h] | solubility [3] [µg/mL] | half-life [1, 7] [h] | half-life [2, 8] [h] | Mucin Secretion % control [5] [% control] | further results |
| --- | --- | --- | --- | --- | --- | --- |
| CCCCCCCCCCCCCC(=O)NCC(=O)N[C@@H](C)C(=O)N[C@@H](CCC(N)=O)C(=O)N[C@@H](C)C(=O)N[C@@H](CO)C(=O)N[C@@H](CCCCN)C(=O)N[C@H](C(=O)N[C@@H](C)C(=O)N[C@@H](C)C(=O)N[C@@H](CCCCN)C(=O)O)[C@@H](C)O [myr-peptide 236] (Myristoyl-GAQASKTAAK-OH) | 0.72 | < 10000 |  |  |  | half-life ([2]; cerebrospinal or other body fluid, human BALF from COPD patients, 1st experiment, read-out: BALF t1/2 (1st exp.) (converted)): 3.55 h; half-life ([2]; cerebrospinal or other body fluid, human BALF from COPD patients, 2nd experiment, read-out: BALF t1/2 (2nd exp.) (converted)): 2.94 h |
| H-GAQFSKTAAK-NH2 [peptide 106-NH2] | 0.3 | > 100000 | 0.13 | 4 |  | half-life ([4]; cerebrospinal or other body fluid, pH 7, human CF mucus, 1st experiment, read-out: Mucus t1/2 (1st exp.) (converted)): 0.08 h; half-life ([4]; cerebrospinal or other body fluid, pH 7, human CF mucus, 2nd experiment, read-out: Mucus t1/2 (2nd exp.) (converted)): 0.13 h |
| CCCCCCCCCCCCCC(=O)O[C@@H]1[C@@H](C)[C@@]2(O)[C@@H](C=C(CO)C[C@]3(O)C(=O)C(C)=C[C@@H]23)[C@@H]2C(C)(C)[C@]12OC(C)=O [PMA, phorbol myristate acetate, reference compound] |  |  |  |  |  | Increase in mucin secretion (HBE1 cells): 20% |
| C[C@@H]1NC(=O)CNC(=O)[C@H](CCCCN)NC(=O)[C@H](C)NC(=O)[C@H](C)NC(=O)[C@H]([C@@H](C)O)NC(=O)[C@H](CCCCN)NC(=O)[C@H](CO)NC(=O)[C@H](Cc2ccccc2)NC(=O)[C@H](CCC(N)=O)NC1=O [cyclic-peptide 106] (cyclo(GAQFSKTAAK)) |  | > 150000 | 1.04 |  |  | half-life ([4]; human CF mucus, 1st experiment, read-out: Mucus t1/2 (1st exp.) (converted)): 1.1 h; half-life ([4]; human CF mucus, 2nd experiment, read-out: Mucus t1/2 (2nd exp.) (converted)): 2 h |
| CCCCCCCCCCCCCC(=O)NCC(=O)N[C@@H](C)C(=O)N[C@@H](CCC(N)=O)C(=O)N[C@@H](Cc1ccccc1)C(=O)N[C@@H](CO)C(=O)N[C@@H](CCCCN)C(=O)N[C@H](C(=O)N[C@@H](CCCCN)C(=O)N[C@@H](C)C(=O)N[C@@H](CCCCN)C(=O)NCC(=O)N[C@@H](CCC(=O)O)C(N)=O)[C@@H](C)O [myr-peptide 234-NH2] (Myristoyl-GAQFSKTKAKGE-NH2) | 3.82 | < 2000 |  | 1.7 | 27.8 |  |
| CCCCCCCCCCCCCC(=O)NCC(=O)N[C@@H](C)C(=O)N[C@@H](CCC(N)=O)C(=O)N[C@@H](Cc1ccccc1)C(=O)N[C@@H](CO)C(=O)N[C@@H](CCCCN)C(=O)N[C@H](C(=O)N[C@@H](C)C(=O)N[C@@H](C)C(=O)N[C@@H](CCCCN)C(=O)O)[C@@H](C)O [myr-peptide 106] (Myristoyl-GAQFSKTAAK-OH) |  | > 10000 |  |  | 33.6 | half-life ([1]; Plasma t1/2 (1st exp.)): 1.23 h; half-life ([1]; Plasma t1/2 (2nd exp.)): 0.9 h; half-life ([4]; cerebrospinal or other body fluid, pH 7, Mucus t1/2 (1st exp.)): 9.53 h; half-life ([4]; cerebrospinal or other body fluid, pH 7, Mucus t1/2 (2nd exp.)): 3 h; half-life [2]: 1.03 h; Mucin Secretion % of control ([5]; peptide 10 μM): 74*+ % of control; Mucin Secretion % of control ([5]; peptide 100 μM): 24** % of control |
